Reference: ChEMBL document CHEMBL4725390, “Asymmetrically Substituted Quadruplex-Binding Naphthalene Diimide Showing Potent Activity in Pancreatic Cancer Models” (ACS Med Chem Lett, 2020)
Activity calls are given as the source filed them. No cut-off for these calls is given here.

Experiments:
Quadruplex DNA = test: Binding affinity to G4 quadruplex DNA in human PANC1 cells assessed as increase in number of BG4 foci at 400 nM after 24 hrs by immunofluorescence based confocal microscopic analysis; type: cell-based; settings: PANC-1
[1] = AUC (infinity) in mouse xenografted with human MIAPaCa2 cells at 14 mg/kg, iv administered as single dose; type: ADME, organism-based; set-up: route intravenous, time infinity, dose 14 mg/kg; settings: in vivo
[2] = AUC in mouse xenografted with human MIAPaCa2 cells at 14 mg/kg, iv administered as single dose; type: ADME, organism-based; set-up: dose 14 mg/kg; settings: in vivo
MIA PaCa-2 [3] = test: Antitumor activity against human MIAPaCa2 cells xenografted in mouse assessed as change in tumor volume at 15 mg/kg, iv administered twice per week for 28 days and measured at day 53 by Caliper method relative to control; type: functional; settings: time 28 day
[4] = Clearance in mouse xenografted with human MIAPaCa2 cells at 9.1 mg/kg, iv administered as single dose; type: ADME, organism-based; settings: in vivo
[5] = Volume of distribution at steady state in mouse xenografted with human MIAPaCa2 cells at 14 mg/kg, iv administered as single dose; type: ADME, organism-based; settings: in vivo, read-out: Vdss
[6] = Apparent volume of distribution in mouse xenografted with human MIAPaCa2 cells at 14 mg/kg, iv administered as single dose; type: ADME, organism-based; settings: in vivo, read-out: Vz
[7] = Volume of distribution at steady state in mouse xenografted with human MIAPaCa2 cells at 9.1 mg/kg, iv administered as single dose; type: ADME, organism-based; settings: in vivo, read-out: Vdss
MIA PaCa-2 [8] = test: Antitumor activity against human MIAPaCa2 cells xenografted in mouse assessed as mean tumor volume at 10 mg/kg, iv administered twice per week for 28 days and measured at day 28 by Caliper method (reference value: 0.45 +/- 0.18 cm3); type: functional; settings: time 28 day
Mus musculus [9] = test: Effect on hTERT expression in mouse xenografted with human MIAPaCa2 cells at 10 mg/kg, iv administered twice per week for 28 days and measured on day 28 by Western blot analysis; type: functional, organism-based; settings: time 28.0 day
[10] = Apparent volume of distribution in mouse xenografted with human MIAPaCa2 cells at 9.1 mg/kg, iv administered as single dose; type: ADME, organism-based; settings: in vivo, read-out: Vz
Mus musculus [11] = test: Effect on hTERT expression in mouse xenografted with human MIAPaCa2 cells at 15 mg/kg, iv administered twice per week for 28 days and measured on day 28 by Western blot analysis; type: functional, organism-based; settings: time 28.0 day
MIA PaCa-2 [12] = test: Antitumor activity against human MIAPaCa2 cells xenografted in mouse assessed as change in tumor volume at 10 mg/kg, iv administered twice per week for 28 days and measured at day 53 by Caliper method relative to control; type: functional; settings: time 28 day
MIA PaCa-2 [13] = test: Antitumor activity against human MIAPaCa2 cells xenografted in mouse assessed as change in tumor volume at 1 mg/kg, iv administered twice per week for 28 days and measured at day 53 by Caliper method relative to control; type: functional; settings: time 28 day
[14] = Half life in mouse xenografted with human MIAPaCa2 cells at 14 mg/kg, iv administered as single dose; type: ADME, organism-based; settings: in vivo
MIA PaCa-2 [15] = test: Antiproliferative activity against human MIAPaCa2 cells assessed as growth inhibition after 96 hrs by SRB assay; type: functional
PANC-1 = test: Antiproliferative activity against human PANC1 cells assessed as growth inhibition after 96 hrs by SRB assay; type: functional
MIA PaCa-2 [16] = test: Antitumor activity against human MIAPaCa2 cells xenografted in mouse assessed as change in tumor volume at 10 mg/kg, iv administered twice per week for 28 days and measured at day 28 by Caliper method relative to control; type: functional; settings: time 28 day
Mus musculus [17] = test: Down regulation of MAPK11 expression in mouse xenografted with human MIAPaCa2 cells at 15 mg/kg, iv administered twice per week for 28 days and measured on day 28 by Western blot analysis; type: functional, organism-based; settings: time 28.0 day
[18] = Cmax in mouse xenografted with human MIAPaCa2 cells at 9.1 mg/kg, iv administered as single dose; type: ADME, organism-based; set-up: route intravenous, dose 9.1 mg/kg; settings: in vivo
[19] = AUC (infinity) in mouse xenografted with human MIAPaCa2 cells at 9.1 mg/kg, iv administered as single dose; type: ADME, organism-based; set-up: route intravenous, time infinity, dose 9.1 mg/kg; settings: in vivo
BXPC-3 = test: Antiproliferative activity against human BxPC3 cells assessed as growth inhibition after 96 hrs by SRB assay; type: functional
[20] = Clearance in mouse xenografted with human MIAPaCa2 cells at 14 mg/kg, iv administered as single dose; type: ADME, organism-based; settings: in vivo
Mus musculus [21] = test: Down regulation of MAPK11 expression in mouse xenografted with human MIAPaCa2 cells at 10 mg/kg, iv administered twice per week for 28 days and measured on day 28 by Western blot analysis; type: functional, organism-based; settings: time 28.0 day
[22] = Cmax in mouse xenografted with human MIAPaCa2 cells at 14 mg/kg, iv administered as single dose; type: ADME, organism-based; set-up: route intravenous, dose 14 mg/kg; settings: in vivo
MIA PaCa-2 [23] = test: Antitumor activity against human MIAPaCa2 cells xenografted in mouse assessed as change in tumor volume at 15 mg/kg, iv administered twice per week for 28 days and measured at day 28 by Caliper method relative to control; type: functional; settings: time 28 day
[24] = Half life in mouse xenografted with human MIAPaCa2 cells at 9.1 mg/kg, iv administered as single dose; type: ADME, organism-based; settings: in vivo
MIA PaCa-2 [25] = test: Antitumor activity against human MIAPaCa2 cells xenografted in mouse assessed as mean tumor volume at 10 mg/kg, iv administered twice per week for 28 days and measured at day 53 by Caliper method (reference value: 1.60 +/- 0.44 cm3); type: functional; settings: time 28 day
CAPAN-1 = test: Antiproliferative activity against human Capan1 cells assessed as growth inhibition after 96 hrs by SRB assay; type: functional
[26] = AUC in mouse xenografted with human MIAPaCa2 cells at 9.1 mg/kg, iv administered as single dose; type: ADME, organism-based; set-up: dose 9.1 mg/kg; settings: in vivo
MIA PaCa-2 [27] = test: Antiproliferative activity against human MIAPaCa2 cells assessed as growth inhibition after 96 hrs by MTS assay relative to SOP1812; type: functional

## O=C1c2ccc3c4c(c(NCCN5CCCC5)cc(c24)C(=O)N1CCCN1CCOCC1)C(=O)N(CCCN1CCOCC1)C3=O
Quadruplex DNA
  Activity: Active
[1]
  AUC(0-inf): 34400 ng·h/mL
[2]
  AUC: 30600 ng·h/mL
MIA PaCa-2 [3]
  Activity: -78.1%
[4]
  clearance: 10.9 mL/min/kg
[5]
  Vd: 2.2 L/kg
[6]
  Vd: 11.8 L/kg
[7]
  Vd: 5.2 L/kg
MIA PaCa-2 [8]
  Activity: 0.16 cm3
Mus musculus [9]
  Activity: inactive
[10]
  Vd: 27.8 L/kg
Mus musculus [11]
  Activity: inactive
MIA PaCa-2 [12]
  Activity: -60.6%
MIA PaCa-2 [13]
  Activity: -90.6%
[14]
  half-life: 16 h
MIA PaCa-2 [15]
  GI50: 9 nM
PANC-1
  GI50: 15.6 nM
MIA PaCa-2 [16]
  Activity: -64.4%
Mus musculus [17]
  inhibition: Active
[18]
  Cmax: 4520 ng/mL
[19]
  AUC(0-inf): 14500 ng·h/mL
BXPC-3
  GI50: 15.5 nM
[20]
  clearance: 8.1 mL/min/kg
Mus musculus [21]
  inhibition: inactive
[22]
  Cmax: 22100 ng/mL
MIA PaCa-2 [23]
  Activity: -73.3%
[24]
  half-life: 33 h
MIA PaCa-2 [25]
  Activity: 0.63 cm3
CAPAN-1
  GI50: 26.5 nM
[26]
  AUC: 11100 ng·h/mL

## O=C1c2cc(-c3ccccc3CN3CCCC3)c3c4c(cc(NCCN5CCCC5)c(c24)C(=O)N1CCCN1CCOCC1)C(=O)N(CCCN1CCOCC1)C3=O
MIA PaCa-2 [27]
  growth inhibition (GI): 2.7%

## O=C1c2cc(-c3ccc(CN4CCOCC4)cc3)c3c4c(cc(NCCN5CCCC5)c(c24)C(=O)N1CCCN1CCOCC1)C(=O)N(CCCN1CCOCC1)C3=O
MIA PaCa-2 [27]
  growth inhibition (GI): 19.2%

## O=C1c2cc(-c3cccc(CN4CCCC4)c3)c3c4c(cc(NCCN5CCCC5)c(c24)C(=O)N1CCCN1CCOCC1)C(=O)N(CCCN1CCOCC1)C3=O
MIA PaCa-2 [27]
  growth inhibition (GI): 19.7%

## O=C1c2cc(-c3ccc(CN4CCCCCC4)cc3)c3c4c(cc(NCCN5CCCC5)c(c24)C(=O)N1CCCN1CCOCC1)C(=O)N(CCCN1CCOCC1)C3=O
MIA PaCa-2 [27]
  growth inhibition (GI): 30.7%

## O=C1c2cc(-c3ccc(CNC4CCCC4)cc3)c3c4c(cc(NCCN5CCCC5)c(c24)C(=O)N1CCCN1CCOCC1)C(=O)N(CCCN1CCOCC1)C3=O
MIA PaCa-2 [27]
  growth inhibition (GI): 54.9%

## O=C1c2cc(-c3ccc(CN4CCCCC4)cc3)c3c4c(cc(NCCN5CCCC5)c(c24)C(=O)N1CCCN1CCOCC1)C(=O)N(CCCN1CCOCC1)C3=O
MIA PaCa-2 [27]
  growth inhibition (GI): 32%

## O=C(c1ccc(-c2cc3c4c(c(NCCN5CCCC5)cc5c4c2C(=O)N(CCCN2CCOCC2)C5=O)C(=O)N(CCCN2CCOCC2)C3=O)cc1)N1CCCC1
MIA PaCa-2 [27]
  growth inhibition (GI): 10.9%

## CCN(CC)Cc1ccc(-c2cc3c4c(c(NCCN5CCCC5)cc5c4c2C(=O)N(CCCN2CCOCC2)C5=O)C(=O)N(CCCN2CCOCC2)C3=O)cc1
MIA PaCa-2 [27]
  growth inhibition (GI): 31.1%

## O=C1c2cc(-c3ccc(N4CCCC4)cc3)c3c4c(cc(NCCN5CCCC5)c(c24)C(=O)N1CCCN1CCOCC1)C(=O)N(CCCN1CCOCC1)C3=O
MIA PaCa-2 [27]
  growth inhibition (GI): 1.9%

## CN1CCN(Cc2ccc(-c3cc4c5c(c(NCCN6CCCC6)cc6c5c3C(=O)N(CCCN3CCOCC3)C6=O)C(=O)N(CCCN3CCOCC3)C4=O)cc2)CC1
MIA PaCa-2 [27]
  growth inhibition (GI): 20.2%

## Nc1ccn([C@@H]2O[C@H](CO)[C@@H](O)C2(F)F)c(=O)n1 [GEMCITABINE]
MIA PaCa-2 [3]
  Activity: -75.6%
Mus musculus [11]
  Activity: inactive
Mus musculus [17]
  inhibition: inactive
MIA PaCa-2 [23]
  Activity: -71.1%
